# Laboratory results from patent publication US20220274947A1, “NOVEL HETEROARYL-TRIAZOLE COMPOUNDS AS PESTICIDES” (Bayer Aktiengesellschaft, priority 2019, published 2022).
# Assays:
# Format in all cases: in vivo
# [1] = test system: Aedes aegypti strain MONHEIM; test: Aedes aegypti test (AEDSAE surface treatment & contact assay); conditions: exposure 30 minutes, 24 hours after contact, read-out: efficacy (mortality); for mortality at 4 mg/m2: surface concentration 4 mg/m^2, glazed tile; for mortality at 20 mg/m2: surface concentration 20 mg/m^2, glazed tile
# In short: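 Compound dissolved in acetone (2 mg/ml) with 2000 ppm rapeseed oil methyl ester, pipetted onto glazed tile and dried. Adult mosquitoes exposed on the surface for 30 min; percent mortality scored 24 h after contact.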
# [2] = test system: Musca domestica strain WHO—N; test: Musca domestica test (MUSCDO surface treatment & contact assay); conditions: exposure 30 minutes, 24 hours after contact, read-out: efficacy (mortality); for mortality at 20 mg/m2: surface concentration 20 mg/m^2, glazed tile; for mortality at 4 mg/m2: surface concentration 4 mg/m^2, glazed tile
# In short: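 Compound dissolved in acetone (2 mg/ml) with 2000 ppm rapeseed oil methyl ester and pipetted onto glazed tile; after acetone evaporation, adult flies exposed to dried surface for 30 minutes. Mortality (%) scored 24 hours after contact.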
# Rhipicephalus sanguineus = Rhipicephalus sanguineus in-vitro contact test, adult brown dog ticks (RHIPSA Cont); conditions: 48 h, after 48 hours, read-out: activity (efficacy: 100% means all ticks are dead or moribund); for pest or weed control at 1 µg/cm2, 100 g/ha: application rate 1 μg/cm^2 (=100 g/ha); for pest or weed control at 5 µg/cm2, 500 g/ha: application rate 5 μg/cm^2 (=500 g/ha)
# In short: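 Compound in acetone (9 mg/mL stock, diluted to test concentration) is coated onto inner walls of glass tubes by rotation for 2 h at 30 rpm. Efficacy is read after 48 h: ticks are tapped down and held on a 45-50° C plate for at most 5 min, and immotile or uncoordinated ones that fail to climb away count as dead or moribund.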
# Myzus persicae [3] = test: Myzus persicae oral test; conditions: 120 h, read-out: activity (mortality)
# In short: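 Percent mortality was recorded at day 5, where 0% means no aphids killed. Compound prepared from an acetone concentrate diluted in water and combined with IPL41 medium containing sugar was offered to mixed-stage green peach aphids, which sucked it through a parafilm seal.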
# Myzus persicae [4] = test: Myzus persicae spray test; conditions: in Brassica rapa, foliar, 120 h; for mortality at 500 g/ha: read-out: activity (mortality), application rate 500 g/ha, spray, Chinese cabbage leaf disks, after 5 days; for mortality at 100 g/ha: read-out: activity (mortality), application rate 100 g/ha, spray, Chinese cabbage leaf disks, after 5 days
# In short: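 Compound in acetone/DMF solvent diluted in water with 1000 ppm alkylarylpolyglycol ether emulsifier, sprayed onto Chinese cabbage leaf disks infested with all instars of Myzus persicae. Mortality (%) scored after 5 days.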
# [5] = test system: Anopheles funestus strain FUMOZ-R; test: Anopheles funestus test (ANPHFU surface treatment & contact assay); conditions: exposure 30 minutes, 24 hours after contact, read-out: efficacy (mortality); for mortality at 4 mg/m2: surface concentration 4 mg/m^2, glazed tile; for mortality at 20 mg/m2: surface concentration 20 mg/m^2, glazed tile
# In short: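 Adult FUMOZ-R mosquitoes were exposed 30 min to glazed tiles treated with compound in acetone plus 2000 ppm rapeseed oil methyl ester, after solvent evaporation. Percent mortality was scored 24 h after contact.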
Structure (SMILES),mortality at 4 mg/m2 [1] [%],mortality at 20 mg/m2 [1] [%],mortality at 20 mg/m2 [2] [%],"pest or weed control at 1 µg/cm2, 100 g/ha (Rhipicephalus sanguineus) [%]",mortality at 4 ppm (Myzus persicae [3]) [%],mortality at 500 g/ha (Myzus persicae [4]) [%],mortality at 4 mg/m2 [2] [%],"pest or weed control at 5 µg/cm2, 500 g/ha (Rhipicephalus sanguineus) [%]",mortality at 4 mg/m2 [5] [%],mortality at 20 mg/m2 [5] [%],mortality at 0.8 ppm (Myzus persicae [3]) [%],mortality at 100 g/ha (Myzus persicae [4]) [%]
CC(C)c1nc([C@H](C)NC(=O)c2cncc(C(F)(F)F)c2)n(-c2ccc(C#N)cn2)n1 [I-30],80 to 100,80 to 100,80 to 100,80,90,,,,,,,
C[C@H](NC(=O)c1cc(Cl)cc(OC(F)(F)F)c1)c1ncnn1-c1cc(N)ccn1 [II-7],,80 to 100,80 to 100,,100,100,,,,,,
C[C@H](NC(=O)c1ccnc(C(F)(F)F)n1)c1ncnn1-c1ccc(C#N)cn1 [II-8],80 to 100,80 to 100,80 to 100,100,,90,80 to 100,100,80 to 100,80 to 100,,
C[C@H](NC(=O)c1cccc(Cl)n1)c1ncnn1-c1ccc(C#N)cn1 [II-9],,,80 to 100,,,,,80,80 to 100,80 to 100,,
C[C@H](NC(=O)c1cc(Cl)cc(SC(F)F)c1)c1ncnn1-c1ccc(C#N)cn1 [II-11],80 to 100,80 to 100,80 to 100,,100,,80 to 100,80,,,,
C[C@H](NC(=O)c1cc(Br)cc(Br)c1)c1ncnn1-c1ccc(C#N)cn1 [II-13],80 to 100,80 to 100,80 to 100,100,90,,80 to 100,80,,,,
C[C@H](NC(=O)c1cc(Br)cc(OC(F)(F)F)c1)c1ncnn1-c1ccc(C#N)cn1 [II-14],80 to 100,80 to 100,80 to 100,80,100,,80 to 100,80,80 to 100,,,
Cc1nc([C@H](C)NC(=O)c2cc(Cl)cc(Cl)c2)n(-c2cc(C#N)ccn2)n1 [II-17],80 to 100,80 to 100,80 to 100,80,,,80 to 100,100,80 to 100,80 to 100,,
Cc1nc([C@H](C)NC(=O)c2cc(Cl)cc(C(F)(F)F)c2)n(-c2cc(C#N)ccn2)n1 [II-18],,,80 to 100,100,100,,80 to 100,100,,,,
Cc1nc([C@H](C)NC(=O)c2cc(C(F)(F)F)cc(C(F)(F)F)c2)n(-c2cc(C#N)ccn2)n1 [II-19],80 to 100,80 to 100,80 to 100,100,100,,,100,,,100,
CC(=O)Nc1ccnc(-n2ncnc2[C@H](C)NC(=O)c2cc(Cl)cc(OC(F)(F)F)c2)c1 [II-22],80 to 100,80 to 100,80 to 100,,,,80 to 100,,80 to 100,80 to 100,,
CCN(C)C(=O)c1ccc(-n2ncnc2[C@H](C)NC(=O)c2cc(Cl)cc(C(F)(F)F)c2)nc1 [II-27],80 to 100,80 to 100,,100,100,90,,100,,80 to 100,,
C[C@H](NC(=O)c1cc(Cl)cc(C(F)(F)F)c1)c1ncnn1-c1cc(N)ccn1 [II-28],,80 to 100,80 to 100,100,90,,,100,,,,
C[C@H](NC(=O)c1cc(Cl)cc(OC(F)(F)F)c1)c1ncnn1-c1ncc(OC(F)F)cn1 [II-30],80 to 100,80 to 100,80 to 100,100,100,,80 to 100,100,,,,
Cc1nc([C@H](C)NC(=O)c2cc(Br)cc(C(F)(F)F)c2)n(-c2ccc(C#N)cn2)n1 [II-32],80 to 100,80 to 100,80 to 100,100,100,90,80 to 100,100,,,100,100
CC(=O)Nc1ccnc(-n2ncnc2[C@H](C)NC(=O)c2cc(Cl)cc(C(F)(F)F)c2)c1 [II-36],80 to 100,80 to 100,80 to 100,,,90,,,80 to 100,80 to 100,,
C[C@H](NC(=O)c1cc(C(F)(F)F)cc(C(F)(F)F)c1)c1ncnn1-c1ccc(C(=O)NC2CC2)cn1 [II-37],80 to 100,80 to 100,,,100,100,,80,,,100,
C[C@H](NC(=O)c1cc(C(F)(F)F)cc(C(F)(F)F)c1)c1ncnn1-c1ncc(Br)s1 [II-41],80 to 100,80 to 100,80 to 100,100,100,,80 to 100,100,,,,
C[C@H](NC(=O)c1cc(Cl)cc(C#N)c1)c1ncnn1-c1ccc(C#N)cn1 [II-57],80 to 100,80 to 100,80 to 100,100,,,80 to 100,100,,,,90
Cc1nc([C@H](C)NC(=O)c2cc(Cl)cc(C#N)c2)n(-c2ccc(C#N)cn2)n1 [II-61],80 to 100,80 to 100,80 to 100,100,100,,80 to 100,100,,,,90
Cc1nc([C@H](C)NC(=O)c2cc(Cl)nc(C(F)(F)F)c2)n(-c2ccc(C#N)cn2)n1 [II-62],80 to 100,80 to 100,80 to 100,100,100,,80 to 100,100,,,,100
Cc1nc([C@H](C)NC(=O)c2cc(Cl)cc(C(F)F)c2)n(-c2ccc(C#N)cn2)n1 [II-65],80 to 100,80 to 100,80 to 100,100,100,,80 to 100,100,,,,90
C[C@H](NC(=O)c1cc(Cl)cc(C(F)(F)F)c1)c1ncnn1-c1ccc(N(C)C(=O)C2CC2)cn1 [II-79],80 to 100,80 to 100,,80,,,,80,80 to 100,80 to 100,100,100
Cc1nc([C@H](C)NC(=O)c2cc(C(F)(F)F)cc(C(F)(F)F)c2)n(-c2ccc(C(=O)N(C)CC#N)cn2)n1 [II-99],,80 to 100,80 to 100,100,100,,80 to 100,100,,,100,90
Cc1nc([C@H](C)NC(=O)c2cc(OC(F)(F)F)cc(C(F)F)c2)n(-c2ccc(C#N)cn2)n1 [II-117],80 to 100,80 to 100,80 to 100,100,100,,80 to 100,100,,,100,100
